Consider 21 molecules from patent publication US12173188B2, “Ultraviolet absorbing agent, ultraviolet absorbing composition, ultraviolet absorbing film, laminate, and novel compound” (FUJIFILM CORPORATION, priority 2019, dated 2024).

Data set [1] in a line: Light fastness of laminate, metal halide lamp irradiation. In kind it is physicochemical. As to conditions: change in transmittance at 380 nm after 60 hours metal halide lamp, 90 mW/cm^2, 63° C., 50% RH. On the procedure:
First, the transmittance of the obtained laminate of the glass plate and the ultraviolet absorbing film at a wavelength of 380 nm was measured using a spectrophotometer (model number: UV 3150) manufactured by Shimadzu Corporation.
Next, using a super-accelerated weather fastness tester [product name: EYE SUPER UV Tester, IWASAKI ELECTRIC Co., Ltd.], the obtained laminate of the glass plate and the ultraviolet absorbing film was irradiated with light (about 290 nm […]) of a metal halide lamp for 60 hours under the conditions of an illuminance of 90 mW/cm^2 ([…]), a temperature of 63° C., and a relative humidity of 50%.
After light irradiation, the transmittance of the obtained laminate of the glass plate and the ultraviolet absorbing film at a wavelength of 380 nm was measured in the same manner as described above using a spectrophotometer (model number: UV 3150) manufactured by Shimadzu Corporation.
The width of change in transmittance at a wavelength of 380 nm before and after the light irradiation was calculated, and the light fastness was evaluated as “particularly good” in a case where the width of change was less than 5%, the light fastness was evaluated as “good” in a case where the width of change was 5% or more and less than 10%, and the light fastness was evaluated as “bad” in a case where the width of change was 10% or more.

Data set [2] can be described thus: Moist heat resistance test of laminate (60° C., 90% RH, 160 hours). As to conditions: for Haze after moist heating: after 160 hours at 60° C.; for Haze after moist heating / Moist heat resistance: 90% RH; for Moist heat resistance: change in transmittance at 380 nm after 160 hours at 60° C. In kind it is physicochemical. The procedure:
The moist heat test was carried out with a constant temperature and humidity device (IG420, manufactured by Yamato Scientific Co., Ltd.) under the conditions of a temperature of 60° C. and a humidity of 90% RH. The transmittance at 380 nm after the lapse of 160 hours was measured by the above method. The width of change in transmittance at a wavelength of 380 nm before and after the moist heat resistance test was calculated, and the moist heat resistance was evaluated as “particularly good” in a case where the width of change was less than 5%, the moist heat resistance was evaluated as “good” in a case where the width of change was 5% or more and less than 10%, and the moist heat resistance was evaluated as “bad” in a case where the width of change was 10% or more.
The haze after the moist heat resistance test was measured by the same method as in (2. Initial haze) described above.

Data set [3] can be described thus: Solubility in distilled water at 25° C. Particulars: 24 hours standing.
Method: The solubility of the specific ultraviolet absorbing agent in water in the present disclosure can be measured by the following method from the amount of the specific ultraviolet absorbing agent dissolved in 10 g of distilled water at 25° C.
After mixing 10 g of distilled water with 1 g of the specific ultraviolet absorbing agent, the resultant mixture is irradiated with ultrasonic waves at a liquid temperature of 25° C. for 15 minutes and then allowed to stand for 24 hours while the liquid temperature is maintained at 25° C. For ultrasonic irradiation, a desktop ultrasonic cleaner 1510, manufactured by Branson Ultrasonics, Emerson Japan, Ltd. is used.
After being allowed to stand for 24 hours, filtration is carried out through a membrane filter (0.1 μm mesh, manufactured by [sequence] Co., Ltd.). The unfiltered specific ultraviolet absorbing agent is collected, dried, and then weighed. The amount of the unfiltered specific ultraviolet absorbing agent is subtracted from 1 g of the specific ultraviolet absorbing agent to obtain an amount of the specific ultraviolet absorbing agent dissolved in water, and the solubility of the specific ultraviolet absorbing agent in water is calculated from that the obtained amount value.
The nature of data set [4]: Molar absorption coefficient in pure water. In kind it is physicochemical. As to conditions: 1.0 mg in 100 mL pure water, 1 cm cell, at maximum absorption wavelength; in L/(mol·cm) (unit assumed). On the procedure: After dissolving 1.0 mg of a sample in 100 mL of pure water, the absorbance of the aqueous solution was measured in a 1 cm cell using a spectrophotometer (model number: UV 3150) manufactured by Shimadzu Corporation. From the measurement results, the molar absorption coefficient was calculated from the value of the absorbance at the maximum absorption wavelength using the Lambert-Beer law.

The nature of data set [5]: Maximum absorption wavelength by spectrophotometer. The data set is classed as physicochemical. Particulars: H2O. The procedure:
The maximum absorption wavelength of the ultraviolet absorbing agent can be measured, for example, using a spectrophotometer. Examples of the device include a spectrophotometer UV3600 and an ultraviolet-visible-near infrared spectrophotometer UV 3150, manufactured by Shimadzu Corporation. In the present disclosure, the maximum absorption wavelength of the ultraviolet absorbing agent is measured using a spectrophotometer UV3600.
The measurement is carried out at room temperature (25° C.), and the absorbance is measured using a spectrophotometer to obtain an absorption spectrum while air is referenced as a control as the measurement condition.
In a case where an absorbance at a wavelength in a predetermined wavelength range is measured, the maximum absorption wavelength, the transmittance, and the like can be calculated.

Setting [6] is: 5.0 parts agent/45.0 parts PVA film.
[7] abbreviates: 2.0 parts agent/98.0 parts PVA film.

With `O=C(c1ccc(O)cc1O)c1ccc(O)cc1O` [Compound H-1, reference compound], the Light fastness entry in data set [1] (setting [6]) is on record as “Bad (the width of change was 10% or more)”. In addition, in data set [2] (setting [6]), the Haze after moist heating turned out to be 6.1% and the Moist heat resistance entry is listed as “Bad (the width of change was 10% or more)”.
For the molecule `O=S(=O)([O-])CCNc1nc(NCCS(=O)(=O)[O-])nc(Nc2ccc(C=Cc3ccc(Nc4nc(NCCS(=O)(=O)[O-])nc(NCCS(=O)(=O)[O-])n4)cc3S(=O)(=O)[O-])c(S(=O)(=O)[O-])c2)n1.[Na+].[Na+].[Na+].[Na+].[Na+].[Na+]` [Compound H-3, reference compound], in data set [1] (setting [6]), the Light fastness entry was “Bad (the width of change was 10% or more)”. In data set [2] (setting [6]), the Haze after moist heating stood at 9.5% and the Moist heat resistance result is “Bad (the width of change was 10% or more)”.
In the case of `CCCCN1C(=O)C(=C2Sc3c(OCCCCS(=O)(=O)[O-])c4c(c(OCCCCS(=O)(=O)[O-])c3S2)SC(=C2C(=O)N(CCCC)N(CCCC)C2=O)S4)C(=O)N1CCCC.[Na+].[Na+]` [Compound H-4, reference compound], the Light fastness result in data set [1] (setting [6]) was “Good (the width of change was 5% or more and less than 10%)”. In addition, in data set [2] (setting [6]), the Haze after moist heating was found to be 18% and the Moist heat resistance entry is given as “Bad (the width of change was 10% or more)”. Moreover, in data set [2] (in words, summary of Table 1), the “haze after the moist heat resistance test” value is listed as “significantly increased”.
As to `CCCCC(CC)COc1ccc(OCC(CC)CCCC)c2c1SC(=C1C(=O)N(CCCC)N(CCCC)C1=O)S2` (centres unmarked) [Compound H-5, reference compound], in data set [1] (setting [6]), the Light fastness entry is “Bad (the width of change was 10% or more)”. For the same molecule, in data set [2] (setting [6]), the Haze after moist heating was 68% and the Moist heat resistance entry is reported as “Bad (the width of change was 10% or more)”.
For the molecule `CC(C)(C)C(=O)C(C#N)=C1Sc2c(OCCCCS(=O)(=O)[O-])ccc(OCCCCS(=O)(=O)[O-])c2S1.[Na+].[Na+]` [Compound M-1], the “Solubility (25° C.)” value in data set [3] is reported as 3.2 % by mass.
The same measure, in the same setting: the result for `N#CC(C(=O)c1ccccc1)=C1Sc2c(OCCCS(=O)(=O)[O-])ccc(OCCCS(=O)(=O)[O-])c2S1.[Na+].[Na+]` [Compound M-2] reads 2.9 % by mass.
In the case of `N#CC(C#N)=C1Sc2c(OCCCCS(=O)(=O)[O-])ccc(OCCCCS(=O)(=O)[O-])c2S1.[Na+].[Na+]` [Compound M-3], the “Solubility (25° C.)” value in data set [3] stood at 3.1 % by mass. For the same molecule, the Molar absorption coefficient in data set [4] is 28,100. The molecule further had a Maximum absorption wavelength in data set [5] of 372 nm. Also, the Light fastness result in data set [1] (setting [7]) and in data set [1] (setting [6]) was “Particularly good (the width of change was less than 5%)” in each case. Also, the Haze after moist heating was found to be 0.1% in data set [2] (setting [7]) and 0.24% in data set [2] (setting [6]). The Moist heat resistance entry in data set [2] (setting [7]) and in data set [2] (setting [6]) was “Particularly good (the width of change was less than 5%)” throughout.
With `CON=CC(C#N)=C1Sc2c(OCCCCS(=O)(=O)[O-])ccc(OCCCCS(=O)(=O)[O-])c2S1.[Na+].[Na+]` [Compound M-5], the “Solubility (25° C.)” value in data set [3] was 3.1 % by mass. Moreover, in data set [4], the Molar absorption coefficient is given as 27,400. This molecule also gave a Maximum absorption wavelength in data set [5] of 390 nm. For the same molecule, the Light fastness result in data set [1] (setting [6]) was “Particularly good (the width of change was less than 5%)”. In addition, in data set [2] (setting [6]), the Haze after moist heating was 0.28% and the Moist heat resistance entry is on record as “Particularly good (the width of change was less than 5%)”.
As for `N#CC(C#N)=C1Sc2c(OCCCCP(=O)(O)O)ccc(OCCCCP(=O)(O)O)c2S1` [Compound M-7], the “Solubility (25° C.)” value in data set [3] was determined as 2.0 % by mass.
As to `N#CC(C#N)=C1Sc2c(OC(=O)CCC(=O)[O-])ccc(OC(=O)CCC(=O)[O-])c2S1.[Na+].[Na+]` [Compound M-8], in data set [3], the “Solubility (25° C.)” value was 2.6 % by mass. In addition, the Light fastness entry in data set [1] (setting [7]) and in data set [1] (setting [6]) was “Particularly good (the width of change was less than 5%)” throughout. The results for the Haze after moist heating in data set [2] (setting [7]) and in data set [2] (setting [6]) were 0.3% and 0.4%, respectively. Further, the Moist heat resistance result in data set [2] (setting [7]) was “Particularly good (the width of change was less than 5%)”; in data set [2] (setting [6]), “Good (the width of change was 5% or more and less than 10%)”.
Turning to `CCCCOc1ccc(OCCCC)c2c1SC(=C(C#N)C(=O)OCCCCS(=O)(=O)[O-])S2.[Na+]` [Compound M-9], the “Solubility (25° C.)” value in data set [3] was determined as 2.1 % by mass.
Still for that read-out and setting: the result for `CCCCOc1ccc(OCCCC)c2c1SC(=C(C#N)C(=O)OCCCCP(=O)(O)O)S2` [Compound M-10] reads 1.9 % by mass.
Turning to `CCCCN1C(=O)C(=C2Sc3c(OCCCCS(=O)(=O)[O-])ccc(OCCCCS(=O)(=O)[O-])c3S2)C(=O)N1CCCC.[Na+].[Na+]` [Compound M-11], in data set [4], the Molar absorption coefficient is 35,900. In data set [5], this molecule gave a Maximum absorption wavelength of 387 nm. Also, the Light fastness result in data set [1] (setting [7]) and in data set [1] (setting [6]) was “Particularly good (the width of change was less than 5%)” in each case. For the same molecule, the values for the Haze after moist heating in data set [2] (setting [7]) and in data set [2] (setting [6]) were 0.1% and 0.26%, respectively. In addition, the Moist heat resistance result in data set [2] (setting [7]) and in data set [2] (setting [6]) was “Particularly good (the width of change was less than 5%)” throughout.
On to `CCCCN1C(=O)C(=C2Sc3c(OCCCS(=O)(=O)[O-])ccc(OCCCS(=O)(=O)[O-])c3S2)C(=O)N1CCCC.[Na+].[Na+]` [Compound M-12], for which, in data set [3], the “Solubility (25° C.)” value amounted to 3.6 % by mass.
On the same count and under the same terms, the result for `O=C1C(=C2Sc3c(OCCCCS(=O)(=O)[O-])ccc(OCCCCS(=O)(=O)[O-])c3S2)C(=O)N(c2ccccc2)N1c1ccccc1.[Na+].[Na+]` [Compound M-13] reads 3.3 % by mass; that for `CCCCOc1ccc(OCCCCS(=O)(=O)[O-])c2c1SC(=C1C(=O)N(CCCCS(=O)(=O)[O-])N(CCCCS(=O)(=O)[O-])C1=O)S2.[Na+].[Na+].[Na+]` [Compound M-14], 3.7 % by mass; that for `CCCCC(CC)COc1ccc(OCC(CC)CCCC)c2c1SC(=C1C(=O)N(CCCCS(=O)(=O)[O-])N(CCCCS(=O)(=O)[O-])C1=O)S2.[Na+].[Na+]` (centres unmarked) [Compound M-15], 2.9 % by mass.
As to `O=C1C(=C2Sc3c(OCCS(=O)(=O)[O-])ccc(OCCS(=O)(=O)[O-])c3S2)C(=O)N(CCCS(=O)(=O)[O-])N1CCCS(=O)(=O)[O-].[Na+].[Na+].[Na+].[Na+]` [Compound M-16], in data set [3], the “Solubility (25° C.)” value turned out to be 2.9 % by mass.
On the same count and under the same terms, the result for `CCCCN1C(=O)C(=C2Sc3c(OCCCCP(=O)(O)O)ccc(OCCCCP(=O)(O)O)c3S2)C(=O)N1CCCC` [Compound M-17] reads 3.0 % by mass; that for `CCCCOc1ccc(OCCCC)c2c1SC(=C1C(=O)N(CCCCP(=O)(O)O)N(CCCCP(=O)(O)O)C1=O)S2` [Compound M-19], 3.0 % by mass.
The same measure, in the same setting: the result for `CCCCOc1ccc(OCCCC)c2c1SC(=C1C(=O)N(CCCCC(=O)[O-])N(CCCCC(=O)[O-])C1=O)S2.[Na+].[Na+]` [Compound M-20] reads 2.9 % by mass.
